Laboratory results taken from patent publication US7446199B2, “Compositions useful as inhibitors of protein kinases” (Vertex Pharmaceuticals Incorporated, priority 2003, dated 2008).

Molecular target: GSK-3β, (AA 1-420) (Homo sapiens, UniProt P49841)
Assay: GSK-3 inhibition assay, coupled enzyme system
Assay type: biochemical
Conditions: 20 μM ATP, 300 μM peptide, 20 nM GSK-3b, 30° C.; read-out: Ki values (GSK3)
Experimental: Compounds of the present invention were screened for their ability to inhibit GSK-3β, (AA 1-420) activity using a standard coupled enzyme system (Fox et al., Protein Sci. 1998, 7, 2249). Reactions were carried out in a solution containing 100 mM HEPES (pH 7.5), 10 mM MgCl2, 25 mM NaCl, 300 μM NADH, 1 mM DTT and 1.5% DMSO. Final substrate concentrations in the assay were 20 μM ATP (Sigma Chemicals, St Louis, Mo.) and 300 μM peptide (American Peptide, Sunnyvale, Calif.). Reactions were carried out at 30° C. and 20 nM GSK-3b. Final concentrations of the components of the coupled enzyme system were 2.5 mM phosphoenolpyruvate, 300 μM NADH, 30 μg/ml pyruvate kinase and 10 μg/ml lactate dehydrogenase.
An assay stock buffer solution was prepared containing all of the reagents listed above with the exception of ATP and the test compound of the present invention. The assay stock buffer solution (175 μl) was incubated in a 96 well plate with 5 μl of the test compound of the present invention at final concentrations spanning 0.002 μM to 30 μM at 30° C. for 10 min. Typically, a 12 point titration was conducted by preparing serial dilutions (from 10 mM compound stocks) with DMSO of the test compounds of the present invention in daughter plates. The reaction was initiated by the addition of 20 μl of ATP (final concentration 20 μM). Rates of reaction were obtained using a Molecular Devices Spectramax plate reader (Sunnyvale, Calif.) over 10 min at 30° C. The Ki values were determined from the rate data as a function of inhibitor concentration.

Sequence of GSK-3β, (AA 1-420) (P49841 whole entry, the tested form may be a part): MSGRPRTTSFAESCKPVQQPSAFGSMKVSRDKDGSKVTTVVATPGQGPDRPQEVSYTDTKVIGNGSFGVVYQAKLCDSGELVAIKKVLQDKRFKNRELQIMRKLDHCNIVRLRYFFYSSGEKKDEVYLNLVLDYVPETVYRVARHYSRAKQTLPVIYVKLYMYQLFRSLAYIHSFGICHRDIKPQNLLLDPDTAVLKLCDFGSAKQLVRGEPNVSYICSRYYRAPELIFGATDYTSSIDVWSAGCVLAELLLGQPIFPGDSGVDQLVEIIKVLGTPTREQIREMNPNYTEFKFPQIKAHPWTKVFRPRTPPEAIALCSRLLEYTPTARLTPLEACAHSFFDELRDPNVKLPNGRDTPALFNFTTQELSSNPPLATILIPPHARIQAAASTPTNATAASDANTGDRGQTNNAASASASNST

SMILES	Ki
CN1CCN(C(=O)[C@H]2C[C@H]2c2cnc3[nH]cc(-c4oncc4-c4cccc(F)c4F)c3c2)CC1 (relative stereo) [Compound 143, cis-(2-{3-[4-(2,3-Difluoro-phenyl)-isoxazol-5-yl]-1H-pyrrolo[2,3-b]pyridin-5-yl}-cyclopropyl)-(4-methyl-piperazin-1-yl)-methanone]	1 to 12.5 µM
Fc1cccc(Cc2cnoc2-c2c[nH]c3ncccc23)c1F [Compound 36, 3-[4-(2,3-Difluoro-benzyl)-isoxazol-5-yl]-1H-pyrrolo[2,3-b]pyridine]	0.2 to 1 µM
Fc1ccc(-c2cnoc2-c2c[nH]c3ncccc23)c(F)c1F [Compound 40, 3-[4-(2,3,4-Trifluoro-phenyl)-isoxazol-5-yl]-1H-pyrrolo [2,3-b]pyridine]	1 to 12.5 µM
CN(C)CC#Cc1cnc2[nH]cc(-c3oncc3-c3cccc(F)c3F)c2c1 [Compound 53, (3-{3-[4-(2,3-Difluoro-phenyl)-isoxazol-5-yl]-1H-pyrrolo[2,3-b]pyridin-5-yl}-prop-2-ynyl)-dimethyl-amine]	0.2 to 1 µM
CN1CCC(c2cnc3[nH]cc(-c4oncc4-c4cccc(F)c4F)c3c2)CC1 [Compound 60, 3-[4-(2,3-Difluoro-phenyl)-isoxazol-5-yl]-5-(1-methyl-piperidin-4-yl)-1H-pyrrolo[2,3-b]pyridine]	0.2 to 1 µM
CN(C)c1cccc(-c2cnc3[nH]cc(-c4oncc4-c4cccc(F)c4F)c3c2)c1 [Compound 61, (3-{3-[4-(2,3-Difluoro-phenyl)-isoxazol-5-yl]-1H-pyrrolo[2,3-b]pyridin-5-yl}-phenyl)-dimethyl-amine]	0.2 to 1 µM
Fc1cccc(-c2cnoc2-c2c[nH]c3ncc(C4CCNCC4)cc23)c1F [Compound 62, 3-[4-(2,3-Difluoro-phenyl)-isoxazol-5-yl]-5-piperidin-4-yl-1H-pyrrolo[2,3-b]pyridine]	0.2 to 1 µM
CC(=O)N1CCC(c2cnc3[nH]cc(-c4oncc4-c4cccc(F)c4F)c3c2)CC1 [Compound 63, 1-(4-{3-[4-(2,3-Difluoro-phenyl)-isoxazol-5-yl]-1H-pyrrolo[2,3-b]pyridin-5-yl}-piperidin-1-yl)-ethanone]	< 0.2 µM
N#CCC(=O)N1CCC(c2cnc3[nH]cc(-c4oncc4-c4cccc(F)c4F)c3c2)CC1 [Compound 64, 3-(4-{3-[4-(2,3-Difluoro-phenyl)-isoxazol-5-yl]-1H-pyrrolo[2,3-b]pyridin-5-yl}-piperidin-1-yl)-3-oxo-propionitrile]	< 0.2 µM
C=Cc1cnc2[nH]cc(-c3oncc3-c3cccc(F)c3F)c2c1 [Compound 66, 3-[4-(2,3-Difluoro-phenyl)-isoxazol-5-yl]-5-vinyl-1H-pyrrolo[2,3-b]pyridine]	0.2 to 1 µM
O=c1ccc(-c2cnc3[nH]cc(-c4oncc4-c4cccc(F)c4F)c3c2)c[nH]1 [Compound 67, 5-{3-[4-(2,3-Difluoro-phenyl)-isoxazol-5-yl]-1H-pyrrolo [2,3-b]pyridin-5-yl}-1H-pyridin-2-one]	< 0.2 µM
Fc1ccc(-c2cnc3[nH]cc(-c4oncc4-c4cccc(F)c4F)c3c2)cn1 [Compound 69, 3-[4-(2,3-Difluoro-phenyl)-isoxazol-5-yl]-5-(6-fluoro-pyridin-3-yl)-1H-pyrrolo[2,3-b]pyridine]	< 0.2 µM
CCN1CCC(c2cnc3[nH]cc(-c4oncc4-c4cccc(F)c4F)c3c2)CC1 [Compound 72, 3-[4-(2,3-Difluoro-phenyl)-isoxazol-5-yl]-5-(1-ethyl-piperidin-4-yl)-1H-pyrrolo[2,3-b]pyridine]	< 0.2 µM
Fc1cccc(-c2cnoc2-c2c[nH]c3ncc(-c4cnc5[nH]ccc5c4)cc23)c1F [Compound 77, 3-[4-(2,3-Difluoro-phenyl)-isoxazol-5-yl]-1H,1′H-[5,5′]bi[pyrrolo[2,3-b]pyridinyl]]	0.2 to 1 µM
COc1ccnc(-c2cnc3[nH]cc(-c4oncc4-c4cccc(F)c4F)c3c2)c1 [Compound 78, 3-[4-(2,3-Difluoro-phenyl)-isoxazol-5-yl]-5-(4-methoxy-pyridin-2-yl)-1H-pyrrolo[2,3-b]pyridine]	0.2 to 1 µM
CN(C)C(=O)c1ccc(-c2cnc3[nH]cc(-c4oncc4-c4cccc(F)c4F)c3c2)nc1 [Compound 79, 6-{3-[4-(2,3-Difluoro-phenyl)-isoxazol-5-yl]-1H-pyrrolo [2,3-b]pyridin-5-yl}-N,N-dimethyl-nicotinamide]	0.2 to 1 µM
CN(C)c1ccnc(-c2cnc3[nH]cc(-c4oncc4-c4cccc(F)c4F)c3c2)c1 [Compound 80, (2-{3-[4-(2,3-Difluoro-phenyl)-isoxazol-5-yl]-1H-pyrrolo[2,3-b]pyridin-5-yl}-pyridin-4-yl)-dimethyl-amine]	1 to 12.5 µM
CN(C)Cc1cc(Cl)nc(-c2cnc3[nH]cc(-c4oncc4-c4cccc(F)c4F)c3c2)c1 [Compound 81, (2-Chloro-6-{3-[4-(2,3-difluoro-phenyl)-isoxazol-5-yl]-1H-pyrrolo[2,3-b]pyridin-5-yl}-pyridin-4-ylmethyl)-dimethyl-amine]	0.2 to 1 µM
CN(C)Cc1ccc(-c2cnc3[nH]cc(-c4oncc4-c4cccc(F)c4F)c3c2)nc1 [Compound 84, (6-{3-[4-(2,3-Difluoro-phenyl)-isoxazol-5-yl]-1H-pyrrolo[2,3-b]pyridin-5-yl}-pyridin-3-ylmethyl)-dimethyl-amine]	0.2 to 1 µM
Fc1cccc(-c2cnoc2-c2c[nH]c3ncc(-c4cncnc4)cc23)c1F [Compound 85, 3-[4-(2,3-Difluoro-phenyl)-isoxazol-5-yl]-5-pyrimidin-5-yl-1H-pyrrolo[2,3-b]pyridine]	1 to 12.5 µM
CN(C)c1ccc(-c2cnc3[nH]cc(-c4oncc4-c4cccc(F)c4F)c3c2)cc1 [Compound 88, (4-{3-[4-(2,3-Difluoro-phenyl)-isoxazol-5-yl]-1H-pyrrolo[2,3-b]pyridin-5-yl}-phenyl)-dimethyl-amine]	0.2 to 1 µM
CS(=O)(=O)n1ccc2cc(-c3cnc4[nH]cc(-c5oncc5-c5cccc(F)c5F)c4c3)cnc21 [Compound 97, 3′-[4-(2,3-Difluoro-phenyl)-isoxazol-5-yl]-1-methanesulfonyl-1H, 1′H-[5,5′]bi[pyrrolo[2,3-b]pyridinyl]]	< 0.2 µM
CNc1ccc2c(-c3oncc3-c3cccc(F)c3F)c[nH]c2n1 [Compound 102, {3-[4-(2,3-Difluoro-phenyl)-isoxazol-5-yl]-1H-pyrrolo[2,3-b]pyridin-6-yl}-methyl-amine]	1 to 12.5 µM
COC(=O)c1cnc2[nH]cc(-c3oncc3-c3cccc(F)c3F)c2c1 [Compound 105, 3-[4-(2,3-Difluoro-phenyl)-isoxazol-5-yl]-1H-pyrrolo[2,3-b]pyridine-5-carboxylic acid methyl ester]	0.2 to 1 µM
CN(C)c1ccc(-c2cnc3[nH]cc(-c4nncn4-c4cccc(F)c4F)c3c2)cc1 [Compound 106, (4-{3-[4-(2,3-Difluoro-phenyl)-4H-[1,2,4]triazol-3-yl]-1H-pyrrolo[2,3-b]pyridin-5-yl}-phenyl)-dimethyl-amine]	< 0.2 µM
Fc1cccc(-n2cnnc2-c2c[nH]c3ncc(-c4ccc(CN5CCOCC5)cc4)cc23)c1F [Compound 109, 3-[4-(2,3-Difluoro-phenyl)-4H-[1,2,4]triazol-3-yl]-5-(4-morpholin-4-ylmethyl-phenyl)-1H-pyrrolo[2,3-b]pyridine]	< 0.2 µM
CN1CCN(c2ccc(-c3cnc4[nH]cc(-c5nncn5-c5cccc(F)c5F)c4c3)cc2)CC1 [Compound 110, 3-[4-(2,3-Difluoro-phenyl)-4H-[1,2,4]triazol-3-yl]-5-[4-(4-methyl-piperazin-1-yl)-phenyl]-1H-pyrrolo[2,3-b]pyridine]	0.2 to 1 µM
